{"source": "patent US10188634B2", "about": "“3-(3H-imidazo[4,5-C]pyridin-2-yl)-1 H-pyrazolo[4,3-B]pyridines and therapeutic uses thereof” (Samumed, LLC, priority 2015, dated 2019)", "key": {"[1]": {"test_system": "LL29 cells (primary human fibroblasts derived from IPF patients) treated with TGF-β1, α-smooth muscle actin", "assay": "Inhibition of the fibrotic process: αSMA staining in TGF-β1 treated primary human fibroblasts from IPF patients (LL29 cells)", "type": "cell-based", "settings": "Fibroblast, 96 h; for EC50: LL29 cells treated with TGF-β1 (20 ng/mL), 4 days; for inhibition at 10 µM: LL29 cells treated with TGF-β1, 4 days, read-out: percent inhibition in brackets (given for EC50 >10 μM)"}, "[2]": {"test_system": "SW480 colon cancer cells", "assay": "Cell viability assay (CellTiter-Blue) in SW480 colon cancer cells", "type": "cell-based", "settings": "Homo sapiens, 96 h; for inhibition at 10 µM: four days, CellTiter-Blue, read-out: percent inhibition at 10 μM (given for EC50 of >10 μM); for EC50: four days incubation, CellTiter-Blue cell viability", "summary_of_the_method": "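About 2×10^3 SW480 colon cancer cells per well were exposed to compound (8-point 1:3 dilutions, 10 μM to 0.004 μM) for four days at 37 °C. Viability was read by CellTiter-Blue resazurin reduction (~3 h, Ex 560/Em 590). EC50 from nonlinear regression; above 10 μM, % inhibition at 10 μM is reported.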"}}, "data": [{"smiles": "C1=C(c2ccc3[nH]nc(-c4nc5c(-c6ccc7c(c6)OCO7)cncc5[nH]4)c3n2)CCNC1", "note": "[Compound 1064, 3-(7-(Benzo[d][1,3]dioxol-5-yl)-3H-imidazo[4,5-c]pyridin-2-yl)-5-(1,2,3,6-tetrahydropyridin-4-yl)-1H-pyrazolo[4,3-b]pyridine]", "values": [{"measurement": "EC50", "setting": "[1]", "value": 4.03, "unit": "µM"}, {"measurement": "inhibition at 10 µM", "setting": "[2]", "value": 0.1, "unit": "%"}, {"measurement": "EC50", "setting": "[2]", "value": "> 10", "unit": "µM"}]}, {"smiles": "Cc1ncc(-c2ccc3[nH]nc(-c4nc5c(-c6cccc(F)c6)cncc5[nH]4)c3n2)s1", "note": "[Compound 1081, 5-(3-(7-(3-Fluorophenyl)-3H-imidazo[4,5-c]pyridin-2-yl)-1H-pyrazolo[4,3-b]pyridin-5-yl)-2-methylthiazole]", "values": [{"measurement": "EC50", "setting": "[1]", "value": 1.96, "unit": "µM"}, {"measurement": "inhibition at 10 µM", "setting": "[2]", "value": 23.5, "unit": "%"}, {"measurement": "EC50", "setting": "[2]", "value": "> 10", "unit": "µM"}]}, {"smiles": "Cc1cnc(-c2ccc3[nH]nc(-c4nc5c(-c6cccc(F)c6)cncc5[nH]4)c3n2)s1", "note": "[Compound 1082, 2-(3-(7-(3-Fluorophenyl)-3H-imidazo[4,5-c]pyridin-2-yl)-1H-pyrazolo[4,3-b]pyridin-5-yl)-5-methylthiazole]", "values": [{"measurement": "EC50", "setting": "[1]", "value": "> 10", "unit": "µM"}, {"measurement": "inhibition at 10 µM", "setting": "[1]", "value": 0, "unit": "%"}, {"measurement": "inhibition at 10 µM", "setting": "[2]", "value": 11.5, "unit": "%"}, {"measurement": "EC50", "setting": "[2]", "value": "> 10", "unit": "µM"}]}, {"smiles": "Cn1cc(-c2ccc3[nH]nc(-c4nc5c(-c6ccc(F)cc6)cncc5[nH]4)c3n2)c(CO)n1", "note": "[Compound 1084, (4-(3-(7-(4-Fluorophenyl)-3H-imidazo[4,5-c]pyridin-2-yl)-1H-pyrazolo[4,3-b]pyridin-5-yl)-1-methyl-1H-pyrazol-3-yl)methanol]", "values": [{"measurement": "EC50", "setting": "[1]", "value": 2.3, "unit": "µM"}, {"measurement": "inhibition at 10 µM", "setting": "[2]", "value": 5.7, "unit": "%"}, {"measurement": "EC50", "setting": "[2]", "value": "> 10", "unit": "µM"}]}, {"smiles": "Cn1cc(-c2ccc3[nH]nc(-c4nc5c(N6CCCCC6)cncc5[nH]4)c3n2)c(CO)n1", "note": "[Compound 1089, (1-Methyl-4-(3-(7-(piperidin-1-yl)-3H-imidazo[4,5-c]pyridin-2-yl)-1H-pyrazolo[4,3-b]pyridin-5-yl)-1H-pyrazol-3-yl)methanol]", "values": [{"measurement": "EC50", "setting": "[1]", "value": "> 10", "unit": "µM"}, {"measurement": "inhibition at 10 µM", "setting": "[1]", "value": 36, "unit": "%"}, {"measurement": "inhibition at 10 µM", "setting": "[2]", "value": 15.5, "unit": "%"}, {"measurement": "EC50", "setting": "[2]", "value": "> 10", "unit": "µM"}]}, {"smiles": "Cn1cc(-c2ccc3[nH]nc(-c4nc5c(-c6ccc7c(c6)OCO7)cncc5[nH]4)c3n2)c(CO)n1", "note": "[Compound 1106, (4-(3-(7-(Benzo[d][1,3]dioxol-5-yl)-3H-imidazo[4,5-c]pyridin-2-yl)-1H-pyrazolo[4,3-b]pyridin-5-yl)-1-methyl-1H-pyrazol-3-yl)methanol]", "values": [{"measurement": "EC50", "setting": "[1]", "value": 2.42, "unit": "µM"}, {"measurement": "inhibition at 10 µM", "setting": "[2]", "value": 3.1, "unit": "%"}, {"measurement": "EC50", "setting": "[2]", "value": "> 10", "unit": "µM"}]}]}
